Earlier results in patent publication US20250361307A1, “COMBINATION THERAPIES FOR TREATING HYPERPROLIFERATIVE DISORDERS” (X4 Pharmaceuticals, Inc., priority 2022, published 2025).

What was measured:
[1] = tested on: small-cell lung cancer and hematologic cell lines; conditions: in vivo; cited from earlier work
[2] = target: T1, A1 (Homo sapiens, UniProt Q16548); conditions: cited from earlier work
T1 sequence (Q16548 1-175): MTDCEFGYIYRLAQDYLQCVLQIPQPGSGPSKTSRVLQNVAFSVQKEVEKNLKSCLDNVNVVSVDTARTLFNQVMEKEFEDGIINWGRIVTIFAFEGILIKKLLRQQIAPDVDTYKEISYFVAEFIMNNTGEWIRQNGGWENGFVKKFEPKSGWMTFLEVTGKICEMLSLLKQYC

[3] = target: MCL-1 (Homo sapiens, UniProt Q07820); conditions: cited from earlier work
[4] = target: BCL-XL (Homo sapiens, UniProt Q07817); conditions: cited from earlier work
[5] = target: T2, BCL-w (Homo sapiens, UniProt Q92843); conditions: cited from earlier work
T2 sequence (Q92843 1-193): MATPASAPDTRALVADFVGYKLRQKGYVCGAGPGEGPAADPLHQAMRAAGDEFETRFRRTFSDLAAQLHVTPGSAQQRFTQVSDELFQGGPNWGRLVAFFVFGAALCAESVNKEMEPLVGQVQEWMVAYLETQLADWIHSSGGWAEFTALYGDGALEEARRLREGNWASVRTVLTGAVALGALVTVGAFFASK

[6] = target: BCL-2 (Homo sapiens, UniProt P10415); conditions: cited from earlier work
[7] = tested on: platelets; conditions: cited from earlier work

Sequence of MCL-1 (Q07820 whole entry): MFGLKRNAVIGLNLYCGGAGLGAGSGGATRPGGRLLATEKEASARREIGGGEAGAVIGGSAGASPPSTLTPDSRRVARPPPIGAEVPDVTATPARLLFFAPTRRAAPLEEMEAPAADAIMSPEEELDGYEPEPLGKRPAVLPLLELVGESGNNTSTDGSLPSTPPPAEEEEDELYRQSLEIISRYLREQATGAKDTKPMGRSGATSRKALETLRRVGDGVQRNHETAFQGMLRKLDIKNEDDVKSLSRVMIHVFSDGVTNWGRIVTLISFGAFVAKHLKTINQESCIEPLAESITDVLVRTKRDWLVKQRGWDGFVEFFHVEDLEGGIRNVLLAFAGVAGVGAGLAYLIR
Sequence of BCL-2 (P10415 whole entry): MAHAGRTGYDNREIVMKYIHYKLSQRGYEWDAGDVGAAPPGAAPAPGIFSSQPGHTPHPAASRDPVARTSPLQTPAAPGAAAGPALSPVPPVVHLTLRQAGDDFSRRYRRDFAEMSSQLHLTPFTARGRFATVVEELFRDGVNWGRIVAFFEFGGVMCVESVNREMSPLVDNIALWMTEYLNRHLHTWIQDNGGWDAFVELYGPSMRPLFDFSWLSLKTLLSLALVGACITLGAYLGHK
Sequence of BCL-XL (Q07817 whole entry): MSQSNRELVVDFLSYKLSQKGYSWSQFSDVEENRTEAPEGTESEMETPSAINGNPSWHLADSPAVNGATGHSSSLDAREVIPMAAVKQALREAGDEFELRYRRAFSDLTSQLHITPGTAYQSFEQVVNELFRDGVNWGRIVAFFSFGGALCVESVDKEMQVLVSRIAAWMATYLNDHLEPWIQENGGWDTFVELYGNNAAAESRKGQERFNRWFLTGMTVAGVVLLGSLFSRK

Structure (SMILES) | tumor responses [1] | activity against A1 [2] | activity against MCL-1 [3] | interaction with BCL-XL [4] | interaction with BCL-w [5] | interaction with BCL-2 [6] | platelet numbers [7]
CC1(C)CCC(c2ccc(Cl)cc2)=C(CN2CCN(c3ccc(C(=O)NS(=O)(=O)c4ccc(N[C@H](CCN5CCOCC5)CSc5ccccc5)c(S(=O)(=O)C(F)(F)F)c4)cc3)CC2)C1 [navitoclax] | rapid and complete tumor responses | no activity | no activity | high affinity | high affinity | high affinity | 
CC1(C)CCC(CN2CCN(c3ccc(C(=O)NS(=O)(=O)c4ccc(NCC5CCOCC5)c([N+](=O)[O-])c4)c(Oc4cnc5[nH]ccc5c4)c3)CC2)=C(c2ccc(Cl)cc2)C1 [venetoclax] |  |  |  |  |  |  | little effect
